The source of these data is PubChem BioAssay (NCI).

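Where inhibition never reached the appropriate level, the endpoint shown equals the highest concentration tested. Otherwise, values were interpolated linearly from a five-concentration, 48-hour dose response in 96-well plates. At the TGI there is no net growth.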 Some results are limits rather than exact numbers.

Common to all, as to assay: NCI anticancer screen, dose series, 48 h
The test system of assay [1] is 786-0 renal.
Assay [2] deals with ACHN renal.
Assay [3] deals with BT-549 breast.
Assay [4] has as its system CCRF-CEM leukemia.
Assay [5] relates to HOP-92 NSCLC.
Assay [6] deals with IGROV1 ovarian.
Assay [7] relates to K-562 leukemia.
Assay [8] relates to M14 melanoma.
The test system of assay [9] is MCF7 breast.
The test system of assay [10] is MDA-MB-231 breast.
Assay [11] relates to MDA-MB-435.
In assay [12] the test system is NCI-H522 lung.
For assay [13], the system named is OVCAR-3 ovarian.
Assay [14] concerns OVCAR-4 ovarian.
Assay [15] has as its system OVCAR-5 ovarian.
The subject of assay [16] is SF-295 CNS.
Assay [17] relates to SF-539 CNS.
In assay [18] the test system is SK-MEL-5 melanoma.
Assay [19] concerns U251 CNS.
Assay [20] concerns UACC-257 melanoma.

On to `Clc1ccc(CSCc2ccc(Cl)cc2Cl)c(Cl)c1`, for which the TGI is greater than 100 µM in assay [1]; greater than 100 µM in assay [2]; greater than 100 µM in assay [3]; 51.7 µM in assay [4]; greater than 100 µM in assay [5]; greater than 100 µM in [6]. Moreover, the TGI is greater than 100 µM in [7]; greater than 100 µM in [8]; 86.9 µM in [9]; greater than 100 µM in [10]; greater than 100 µM in assay [11]; 74 µM in assay [12]. In addition, the TGI was greater than 100 µM in [13]; greater than 100 µM in [14]; greater than 100 µM in assay [15]; greater than 100 µM in assay [16]; greater than 100 µM in [17]; 97.9 µM in assay [18]. The results for the TGI in assay [19] and in assay [20] were greater than 100 µM and 64.7 µM, respectively.

Take `CCC(CCCCC1CC[C@H]2CC(=O)C[C@@H]12)OC` (stereo not given in full): the TGI in assay [1], in assay [2], in [3], in assay [4], in assay [5] and in assay [6] was greater than 100 µM in each case. In addition, the TGI was 66.1 µM in assay [7]; greater than 100 µM in assay [8]; greater than 100 µM in assay [9]; greater than 100 µM in assay [10]; greater than 100 µM in assay [11]; greater than 100 µM in [12]. In addition, the TGI in assay [13], in assay [14], in [15], in assay [16], in assay [17] and in assay [18] was greater than 100 µM each time. The TGI in [19] and in [20] was greater than 100 µM each time.

In the case of `CCOC(=O)C1C(=O)CC(C)(O)C(C(=O)OCC)C1c1ccc(OC)cc1` (stereo not given), the TGI in assay [1], in assay [2], in assay [3], in [4], in assay [5] and in assay [6] was greater than 100 µM throughout. Further, the TGI in assay [7], in assay [8], in assay [9], in assay [10], in assay [11] and in [12] was greater than 100 µM throughout. The TGI in assay [13], in assay [14], in assay [15], in [16], in assay [17] and in [18] was greater than 100 µM each time. Also, the TGI in assay [19] and in assay [20] was greater than 100 µM in each case.

Turning to `Cc1c(C)c(C)c(CSC(=N)N)c(C)c1C`, the TGI in assay [1] was 32.9 µM; in [2], 30.1 µM; in assay [3] it was 30.7 µM; in assay [4], 35.4 µM; in assay [5] it was 30.9 µM; in assay [6], greater than 100 µM. In addition, the TGI in assay [7] is 30.2 µM; in assay [8], 22.7 µM; in assay [9], 30.9 µM; in assay [10], 27.1 µM; in assay [11] it was 31.3 µM; in [12], 33 µM. For the same compound, the TGI was 32.1 µM in assay [13]; 33.2 µM in assay [14]; 29.8 µM in assay [15]; 21.7 µM in assay [16]; 29.1 µM in [17]; 26.6 µM in assay [18]. The TGI in assay [19] was determined as 26.4 µM; in assay [20], 27.3 µM.

As to `CCNC(=O)Cc1nc2c(=O)[nH]cnc2n1C1OC(CO)C(O)C1O` (stereo not given), the TGI in assay [1], in assay [2], in assay [3], in assay [4], in assay [5] and in [6] was greater than 100 µM throughout. For the same compound, the TGI in assay [7], in [8], in [9], in assay [10], in [11] and in assay [12] was greater than 100 µM throughout. The TGI in assay [13], in assay [14], in assay [15], in assay [16], in assay [17] and in assay [18] was greater than 100 µM in each case. The TGI in assay [19] and in assay [20] was greater than 100 µM each time.

On to `O=C1c2cccnc2-c2nccc3ccnc1c23`, for which the TGI in assay [1] is 2.04 µM; in [2], 1.46 µM; in assay [3], 2.78 µM; in assay [4], 0.156 µM; in [5], 2.36 µM; in [6], 2.12 µM. The TGI in assay [7] turned out to be 0.666 µM; in assay [8], 2.43 µM; in assay [9], 1.7 µM; in assay [10], 6.52 µM; in [11], 0.38 µM; in assay [12] it was 0.666 µM. For the same compound, the TGI in [13] worked out at 1.49 µM; in assay [14] it was 5.46 µM; in assay [15] it was 4.2 µM; in [16] it was 2.78 µM; in [17], 4.81 µM; in [18], 1.84 µM. The TGI in assay [19] turned out to be 3.49 µM; in assay [20], 2.27 µM.
